# In article PMC8122463, “Coumarin-Chalcone Hybrids as Inhibitors of MAO-B: Biological Activity and In Silico Studies” (Molecules, 2021):
# “Also recorded” adds a separate entry of the source.
# Tests used:
# rMAO-A = target: T1, rMAO-A (Rattus norvegicus, UniProt P21396); assay: Inhibition of rMAO-A in crude rat brain mitochondria (5-HT substrate, HPLC-ED); type: biochemical; conditions: substrate 5-HT
# T1 construct: using a suspension of crude rat brain mitochondria as enzyme source; from tissue; host or cells: rat brain (crude mitochondrial suspension)
# T1 sequence (P21396 1-526): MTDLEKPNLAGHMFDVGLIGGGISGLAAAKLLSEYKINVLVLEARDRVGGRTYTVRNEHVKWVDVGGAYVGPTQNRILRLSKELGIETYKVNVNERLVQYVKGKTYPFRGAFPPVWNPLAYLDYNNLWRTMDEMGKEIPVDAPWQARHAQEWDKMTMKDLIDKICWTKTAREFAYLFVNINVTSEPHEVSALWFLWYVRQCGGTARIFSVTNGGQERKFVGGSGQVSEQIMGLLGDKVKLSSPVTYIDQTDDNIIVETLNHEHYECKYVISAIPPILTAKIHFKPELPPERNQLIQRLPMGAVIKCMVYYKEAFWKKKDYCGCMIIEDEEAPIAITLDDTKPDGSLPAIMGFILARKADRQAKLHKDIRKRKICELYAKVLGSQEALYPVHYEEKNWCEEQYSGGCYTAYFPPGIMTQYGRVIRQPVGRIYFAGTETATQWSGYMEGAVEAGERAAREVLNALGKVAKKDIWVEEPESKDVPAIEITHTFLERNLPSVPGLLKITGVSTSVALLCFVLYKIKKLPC
# Description: (§1) Fourteen derivatives differing in the substitution pattern of the cinnamyl benzene ring were studied, these compounds were tested on rat MAO-A and B to determine their inhibitory activity MAO. A general screening was carried out at 10 µM finding moderate activity for some of the compounds against rMAO-B but none against rMAO-A. Thus, five molecules were identified as possibly selective IMAO-B.
# (§2) The effect of coumarin derivatives on MAO-A and MAO-B were measured using a suspension of crude rat brain mitochondria as enzyme source. 4-Dimethylaminophenethylamine (4-DMAPEA, 2.5 µM) and 5-hydroxytryptamine (5-HT, […]) were used as substrates selective of MAO-B or MAO-A, respectively. Evaluation of the test compounds on rMAO activity was executed by measuring their effects on the production of 4-dimethylaminophenylacetic acid (DMAPAA) by rMAO-B and 5-hydroxyindoleacetic acid (5-HIAA) by rMAO-A with O2 using HPLC-ED (L-7110 LaChrom and amperometric detector L-3500 LaChrom Recipe, Hitachi, (Tokyo, Japan) (for more detail see methodological references). The IC50 values (average ± SD was measured in two independent experiments each in triplicate) were assessed representing percentage of inhibition in function of the negative logarithm of different inhibitor concentrations (10^−4 to 10^−8) using the GraphPad Prism software.
# rMAO-B = target: T2, rMAO-B (Rattus norvegicus, UniProt P19643); assay: Inhibition of rMAO-B in crude rat brain mitochondria (4-DMAPEA substrate, HPLC-ED); type: biochemical; conditions: for IC50: crude rat brain mitochondria, substrate 4-DMAPEA 2.5 µM
# T2 construct: using a suspension of crude rat brain mitochondria as enzyme source; from tissue; host or cells: rat brain (crude mitochondrial suspension)
# T2 sequence (P19643 1-520): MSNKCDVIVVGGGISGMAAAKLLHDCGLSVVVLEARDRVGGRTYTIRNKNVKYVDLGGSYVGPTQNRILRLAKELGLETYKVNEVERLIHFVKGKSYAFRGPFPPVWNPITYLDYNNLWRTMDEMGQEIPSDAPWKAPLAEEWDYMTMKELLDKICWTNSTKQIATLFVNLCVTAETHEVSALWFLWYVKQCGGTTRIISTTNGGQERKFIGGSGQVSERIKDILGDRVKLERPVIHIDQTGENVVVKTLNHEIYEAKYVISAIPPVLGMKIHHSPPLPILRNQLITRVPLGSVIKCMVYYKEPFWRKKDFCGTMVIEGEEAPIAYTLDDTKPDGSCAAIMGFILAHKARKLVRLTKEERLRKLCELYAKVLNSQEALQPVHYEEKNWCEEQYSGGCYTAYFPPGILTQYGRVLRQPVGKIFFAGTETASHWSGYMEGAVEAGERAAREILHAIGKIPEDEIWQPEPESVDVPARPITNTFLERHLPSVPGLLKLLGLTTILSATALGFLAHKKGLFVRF
# Description: as §1, §2
structure (smiles),measurement,setting,value
"COc1ccc2cc(C(=O)/C=C/c3ccccc3O)c(=O)oc2c1 [ChC2, (E)-3-(3-(2-Hydroxyphenyl)acryloyl)-7-methoxy-2H-chromen-2-one]",IC50,rMAO-A,> 10 µM
same,rMAO-B inhibitory activity in vitro (in words),rMAO-B,loss of the inhibitory activity; also recorded: does not show in vitro activity
same,IC50,rMAO-B,> 10 µM
"COc1ccc2cc(C(=O)/C=C/c3ccccc3OC)c(=O)oc2c1 [ChC3, (E)-7-methoxy-3-(3-(2-methoxyphenyl)acryloyl)-2H-chromen-2-one]",IC50,rMAO-A,> 10 µM
same,IC50,rMAO-B,> 10 µM
"COc1ccc(OC)c(/C=C/C(=O)c2cc3ccc(OC)cc3oc2=O)c1 [ChC8, (E)-3-(3-(2,5-dimethoxyphenyl)acryloyl)-7-methoxy-2H-chromen-2-one]",IC50,rMAO-A,> 10 µM
same,IC50,rMAO-B,> 10 µM
"COc1ccc(/C=C/C(=O)c2cc3ccc(OC)cc3oc2=O)cc1 [ChC6, (E)-7-methoxy-3-(3-(4-methoxyphenyl)acryloyl)-2H-chromen-2-one]",IC50,rMAO-A,> 10 µM
same,IC50,rMAO-B,6.96 ± 0.07 µM
"COc1ccc2cc(C(=O)/C=C/c3ccc4c(c3)OCO4)c(=O)oc2c1 [ChC9, (E)-3-(3-(benzo[d][1,3]dioxol-5-yl)acryloyl)-7-methoxy-2H-chromen-2-one]",IC50,rMAO-A,> 10 µM
same,IC50,rMAO-B,3.71 ± 0.68 µM
"COc1ccc2cc(C(=O)/C=C/c3ccc(N(C)C)cc3)c(=O)oc2c1 [ChC13, (E)-3-(3-(4-(dimethylamino)phenyl)acryloyl)-7-methoxy-2H-chromen-2-one]",IC50,rMAO-A,> 10 µM
same,IC50,rMAO-B,> 10 µM
COc1ccc2cc(C(=O)/C=C/c3ccc(O)c(OC)c3)c(=O)oc2c1 [ChC10],IC50,rMAO-A,> 10 µM
same,rMAO-B inhibitory activity in vitro (in words),rMAO-B,loss of the inhibitory activity
same,IC50,rMAO-B,> 10 µM
"COc1cccc(/C=C/C(=O)c2cc3ccc(OC)cc3oc2=O)c1 [ChC5, (E)-7-methoxy-3-(3-(3-methoxyphenyl)acryloyl)-2H-chromen-2-one]",IC50,rMAO-A,> 10 µM
same,IC50,rMAO-B,9.63 ± 0.9 µM
same,Fold lower IMAO activity than ChC4,"rMAO-B; rMAO-B, relative to ChC4",approximately 12 fold
"COc1ccc2cc(C(=O)C=Cc3ccccc3)c(=O)oc2c1 [ChC1, 3-Cinnamoyl-7-methoxy-2H-chromen-2-one]",IC50,rMAO-A,> 10 µM
same,IC50,rMAO-B,> 10 µM
"COc1ccc2cc(C(=O)/C=C/c3cccc(O)c3)c(=O)oc2c1 [ChC4, (E)-3-(3-(3-hydroxyphenyl)acryloyl)-7-methoxy-2H-chromen-2-one]",IC50,rMAO-A,> 10 µM
same,IC50,rMAO-B,0.76 ± 0.08 µM
COc1ccc2cc(C(=O)/C=C/c3ccc(SC)cc3)c(=O)oc2c1 [ChC11],IC50,rMAO-A,> 10 µM
same,IC50,rMAO-B,5.88 ± 0.57 µM
"COc1ccc2cc(C(=O)/C=C/c3ccc(Br)cc3)c(=O)oc2c1 [ChC14, (E)-3-(3-(4-bromophenyl)acryloyl)-7-methoxy-2H-chromen-2-one]",IC50,rMAO-A,> 10 µM
same,IC50,rMAO-B,> 10 µM
"COc1ccc2cc(C(=O)/C=C/c3cc(Br)c(OC)c(Br)c3)c(=O)oc2c1 [ChC12, (E)-3-(3-(3,5-dibromo-4-methoxyphenyl)acryloyl)-7-methoxy-2H-chromen-2-one]",IC50,rMAO-A,> 10 µM
same,IC50,rMAO-B,> 10 µM
